Test results: patent US9695133B2, “Quinazolinone-based oncogenic-RAS-selective lethal compounds and their use” (THE TRUSTEES OF COLUMBIA UNIVERSITY IN THE CITY OF NEW YORK, priority 2012, dated 2017)
Like-named read-outs stand apart in the source and are kept apart here.

Assays:
[1] = system: BJeH, BJeHLT, BJeLR and DRD cells; type: cell-based; conditions: for RSL phenotype (oncogenic-RAS-selective lethality): four BJ-derived cell lines, with and without HRAS G12V; for Selectivity score: EC50 (BJeH)/EC50 (BJeLR)
HT-1080 cells [2] = experiment: Cell death rescue by ALOX and COX inhibitors in HT-1080 cells; type: cell-based, human; conditions: for suppression of cell death induced by RSL compounds / suppression of cell death induced by non-RSL compounds: HT-1080 cells, 10 μM BAI or 50 μM ZIL, 24 hours; for suppression of erastin-induced cell death: inhibitor concentrations of Table 2
Procedure: HT-1080 cells were seeded in 384-well plates, treated with the indicated amount of compounds with or without 10 μM of BAI or 50 μM of ZIL for 24 hours. The percent growth inhibition was determined using alamar blue.
Lethal compounds were added to HT-1080 cells in the presence or absence of ALOX or COX inhibitors in a 2-fold dilution series. The concentrations of the inhibitors are listed along with vendor information in Table 2. Cell viability was determined using alamar blue and percent growth inhibition calculated as described above.

BJeLR cells = experiment: RSL testing: growth inhibition (alamar blue) in BJeLR cells; type: cell-based; conditions: Homo sapiens
Procedure: Cell viability was determined using alamar blue and percent growth inhibition computed as described previously (Id.).

GPX4 = GPX4 knockdown (siGPX4) in HT-1080 cells
GFP-ALOX5 [3] = experiment: GFP-ALOX5 translocation in HT-1080 cells; type: cell-based, human
Procedure: HT-1080 cells stably expressing GFPALOX5 were treated with the indicated compounds under the conditions detailed in FIG. 13b. […] Note that digioxin (DIG) did translocate GFP-ALOX5 to the perinuclear membrane region in a small portion of the cell population (arrow). Digioxin is known to increase cellular calcium concentration that can translocate GFP-ALOX5, similarly to ionomycin. Scale bars, 60 μm.
(§1) A cDNA of ALOX5 (GeneBank ID: BC130332.1) was cloned into a pBabe-puro vector to express GFP fused ALOX5 (N-terminal GFP fusion) in cells. The plasmid was transfected into PLAT-GP cells (Cell Biolabs Inc., cat # RV-103, San Diego, Calif.) along with a pVSV-G helper plasmid to produce retrovirus harboring the expression plasmid. 0.2 million target cells (BJeH, BJeHLT, BJeLR or HT-1080 cells) were seeded in 10 cm tissue culture dishes and incubated in the tissue culture incubator for 1 day. A frozen stock of retrovirus solution was thawed at 37° C. for 2 minutes, and polybrene (Sigma, cat. # H9268) was added at a final concentration of 8 μg/mL. Culture medium was replaced with virus/polybrene mix and the culture dish was incubated for two hours with rocking every 30 minutes. After 2 hours, 10 mL of growth media was added to culture dish, and the culture was incubated further for 2 days. Cell lines stably expressing GFP-ALOX5 protein were selected using 1.5 μg/mL puromycin and used for the GFP-ALOX5 translocation assay.
Next, GFP-ALOX5-expressing HT-1080 cells were treated with these non-RSL and RSL compounds and changes in the location of GFP-ALOX5 were monitored as a measure of ALOX protein activation. […] Digoxin is known to elevate intracellular calcium (McGarry et al., 1993), which is likely to cause the translocation of GFP-ALOX5, similar to ionomycin. Note that ionomycin and digoxin are not RSL compounds and induce translocation of GFP-ALOX5 non-specifically in the BJ-derived cell lines (FIGS. 7 and 13). The results highlight the importance of selective ALOX activation for the induction of the RSL phenotype.

HT-1080 cells [4] = conditions: 24 hours
U-2 OS cells = experiment: U-2 OS cell viability (alamar blue) with TBHP or NAC; type: cell-based
GFP-ALOX5 [5] = experiment: GFP-ALOX5 translocation in BJ-derived cell lines; type: cell-based, human
Procedure: as §1
ALOX5 is one of the six human ALOX genes and plays a critical role in leukotriene synthesis. In the basal state, the ALOX5 protein remains in the nucleus; however, upon activation, it translocates to the nuclear membrane (Chen et al., 2001). […] Second, calcium chelators were not effective in suppressing erastin-induced cell death (Wolpaw et al., 2011).

[6] = cell line not in head, footnote names EC50 (BJeLR), read-out: EC50

Compound: CC(C)Oc1ccc(C=O)cc1-n1c(CN2CCN(C(=O)COc3ccc(Cl)cc3)CC2)nc2ccccc2c1=O [AE, 3-(2-((4-(2-(4-chlorophenoxy)ethanoyl)piperazin-1-yl)methyl)-4-oxoquinazolin-3(4H)-yl)-4-isopropoxybenzaldehyde]
- RSL phenotype (oncogenic-RAS-selective lethality) [1]: retained the RSL phenotype

Compound: Nc1nc[nH]n1 [ATZ]
- RSL phenotype (oncogenic-RAS-selective lethality) [1]: none of the other anti-oxidant targeting compounds displayed an RSL phenotype

Compound: O=c1cc(-c2ccccc2)oc2cc(O)c(O)c(O)c12 [BAI, Baicalein]
- suppression of cell death induced by RSL compounds (HT-1080 cells [2]): strongly suppressed cell death induced by all RSL compounds
- suppression of cell death induced by non-RSL compounds (HT-1080 cells [2]): not able to suppress cell death induced by eleven non-RSL compounds
- suppression of erastin-induced cell death (HT-1080 cells [2]): strongly suppressed erastin-induced cell death

Compound: N#CC(=Cc1ccc(O)c(O)c1)C(=O)OCC=Cc1ccccc1 [CDC, cinnamyl-3,4-dihydroxy-a-cyanocinnamate]
- suppression of erastin-induced cell death (HT-1080 cells [2]): strongly suppressed erastin-induced cell death

Compound: CCN(CC)Cc1ccc(OC(C)C)c(-n2c(CN3CCN(C(=O)COc4ccc(Cl)cc4)CC3)nc3ccccc3c2=O)c1 [Compound 15]
- EC50 (BJeLR cells; BJeLR, read-out: EC50 (BJeLR)): 1680 nM
- Selectivity score [1]: 4.1

Compound: CC(C)Oc1ccc(N2CCN(C)CC2)cc1-n1c(CN2CCN(C(=O)COc3ccc(Cl)cc3)CC2)nc2ccccc2c1=O [Compound 17]
- EC50 (BJeLR cells; BJeLR, read-out: EC50 (BJeLR)): 900 nM
- Selectivity score [1]: 7.3

Compound: COCCN(CCOC)Cc1ccc(OC(C)C)c(-n2c(CN3CCN(C(=O)COc4ccc(Cl)cc4)CC3)nc3ccccc3c2=O)c1 [Compound 18]
- EC50 (BJeLR cells; BJeLR, read-out: EC50 (BJeLR)): 140 nM
- Selectivity score [1]: 5.9

Compound: CC(C)Oc1ccc(CN(C)CCC#N)cc1-n1c(CN2CCN(C(=O)COc3ccc(Cl)cc3)CC2)nc2ccccc2c1=O [Compound 19]
- EC50 (BJeLR cells; BJeLR, read-out: EC50 (BJeLR)): 260 nM
- Selectivity score [1]: 5.1

Compound: CC(C)Oc1ccc(CN(C)CCO)cc1-n1c(CN2CCN(C(=O)COc3ccc(Cl)cc3)CC2)nc2ccccc2c1=O [Compound 21]
- EC50 (BJeLR cells; BJeLR, read-out: EC50 (BJeLR)): 360 nM
- Selectivity score [1]: 3.7

Compound: CC(C)Oc1ccc(CNCCCN(C)C)cc1-n1c(CN2CCN(C(=O)COc3ccc(Cl)cc3)CC2)nc2ccccc2c1=O [Compound 22]
- EC50 (BJeLR cells; BJeLR, read-out: EC50 (BJeLR)): 2300 nM
- Selectivity score [1]: 3.3

Compound: CC(C)Oc1ccc(CN2CCN(CCO)CC2)cc1-n1c(CN2CCN(C(=O)COc3ccc(Cl)cc3)CC2)nc2ccccc2c1=O [Compound 23]
- EC50 (BJeLR cells; BJeLR, read-out: EC50 (BJeLR)): 1200 nM
- Selectivity score [1]: 2.8

Compound: CC(C)Oc1ccc(CNCCOCCO)cc1-n1c(CN2CCN(C(=O)COc3ccc(Cl)cc3)CC2)nc2ccccc2c1=O [Compound 24]
- EC50 (BJeLR cells; BJeLR, read-out: EC50 (BJeLR)): 2100 nM
- Selectivity score [1]: 2.5

Compound: CC(C)Oc1ccc(CN2CCOCC2)cc1-n1c(CN2CCN(C(=O)COc3ccc(Cl)cc3)CC2)nc2ccccc2c1=O [Compound 40, 2-((4-(2-(4-chlorophenoxy)ethanoyl)piperazin-1-yl)methyl)-3-(2-isopropoxy-5-(morpholinomethyl)phenyl)quinazolin-4(3H)-one]
- EC50 (BJeLR cells; BJeLR, read-out: EC50 (BJeLR)): 130 nM
- EC50 (BJeLR cells; [6]): 130 nM

Compound: CC(C)Oc1c(CN2CCOCC2)cccc1-n1c(CN2CCN(C(=O)COc3ccc(Cl)cc3)CC2)nc2ccccc2c1=O [Compound 51]
- EC50 (BJeLR cells; [6]): 1170 nM

Compound: N#CC(=C(/N)Sc1ccccc1N)/C(C#N)=C(\N)Sc1ccccc1N [Compound U0126]
- rescue of siGPX4-induced cell death (GPX4): rescued

Compound: O=[N+]([O-])c1ccc(Cl)c(Cl)c1 [DCNB]
- RSL phenotype (oncogenic-RAS-selective lethality) [1]: none of the other anti-oxidant targeting compounds displayed an RSL phenotype

Compound: CCN(CC)C(=S)S [DETC]
- RSL phenotype (oncogenic-RAS-selective lethality) [1]: none of the other anti-oxidant targeting compounds displayed an RSL phenotype

Compound: CN(C)C(=O)/N=N/C(=O)N(C)C [DIA]
- RSL phenotype (oncogenic-RAS-selective lethality) [1]: none of the other anti-oxidant targeting compounds displayed an RSL phenotype

Compound: CCc1ccc(/C=C2\SC(=S)N(CCC(=O)NCCCN3CCOCC3)C2=O)cc1 [DPI2]
- GFP-ALOX5 translocation to the nuclear membrane (GFP-ALOX5 [3]): translocated GFP-ALOX5 to the nuclear membrane

Compound: CC(C)c1onc(C(=O)N2CCN(C(c3ccccc3)c3ccccc3)CC2)c1[N+](=O)[O-] [DPI10]
- GFP-ALOX5 translocation to the nuclear membrane (GFP-ALOX5 [3]): translocated GFP-ALOX5 to the nuclear membrane

Compound: Nc1nc(CCl)nc(Nc2ccc3ccccc3c2)n1 [DPI17]
- GFP-ALOX5 translocation to the nuclear membrane (GFP-ALOX5 [3]): translocated GFP-ALOX5 to the nuclear membrane

Compound: N[C@@H](CCC(=O)N[C@@H](CS)C(=O)NCC(=O)O)C(=O)O [GSH, reduced glutathione]
- rescue from erastin lethality by GSH supplementation (HT-1080 cells [4]; 1 mM GSH): rescued cells from erastin lethality

Compound: COc1ccc2c(c1)c(CC(=O)O)c(C)n2C(=O)c1ccc(Cl)cc1 [Indomethacin]
- suppression of erastin-induced cell death (HT-1080 cells [2]): only minimally effective in suppressing erastin lethality

Compound: CC(=O)N[C@@H](CS)C(=O)O [NAC, N-acetyl-cysteine]
- rescue from erastin lethality by NAC supplementation (U-2 OS cells): rescued cells from erastin lethality

Compound: c1ccc2c(c1)SCc1c-2[nH]c2ccccc12 [PD-146176]
- suppression of erastin-induced cell death (HT-1080 cells [2]): strongly suppressed erastin-induced cell death

Compound: CC(C)Oc1ccncc1-n1c(CN2CCN(C(=O)COc3ccc(Cl)cc3)CC2)nc2ccccc2c1=O [PYR, 2-((4-(2-(4-chlorophenoxy)ethanoyl)piperazin-1-yl)methyl)-3-(4-isopropoxypyridin-3-yl)quinazolin-4(3H)-one]
- RSL phenotype (oncogenic-RAS-selective lethality) [1]: did not display lethality

Compound: CN[C@@H]1C[C@H]2O[C@@](C)([C@@H]1OC)n1c3ccccc3c3c4c(c5c6ccccc6n2c5c31)C(=O)NC4 [STS, Staurosporine]
- GFP-ALOX5 translocation to the nuclear membrane (GFP-ALOX5 [3]): did not

Compound: CC(c1cc2ccccc2s1)N(O)C(N)=O (stereo not drawn) [Zileuton]
- suppression of cell death induced by RSL compounds (HT-1080 cells [2]): strongly suppressed cell death induced by all RSL compounds
- suppression of cell death induced by non-RSL compounds (HT-1080 cells [2]): not able to suppress cell death induced by eleven non-RSL compounds
- suppression of erastin-induced cell death (HT-1080 cells [2]): strongly suppressed erastin-induced cell death
- rescue of siGPX4-induced cell death (GPX4; 10 μM U0126, 100 μM Vit. E, 100 μM DFOM, 50 μM ZIL): rescued

Compound: CC(C)Oc1ccccc1-n1c(CN2CCN(C(=O)c3ccc(Cl)cc3)CC2)nc2ccccc2c1=O [dMK, 2-((4-(4-chlorophenylcarbonyl)piperazin-1-yl)methyl)-3-(2-isopropoxyphenyl)quinazolin-4(3H)-one]
- RSL phenotype (oncogenic-RAS-selective lethality) [1]: did not display lethality

Compound: C[C@H]1O[C@@H](O[C@H]2[C@@H](O)C[C@H](O[C@H]3[C@@H](O)C[C@H](O[C@H]4CC[C@@]5(C)[C@H](CC[C@@H]6[C@@H]5C[C@@H](O)[C@]5(C)[C@@H](C7=CC(=O)OC7)CC[C@]65O)C4)O[C@@H]3C)O[C@@H]2C)C[C@H](O)[C@@H]1O [digoxin, Digoxin]
- GFP-ALOX5 translocation to the nuclear membrane (GFP-ALOX5 [3]): induced GFP-ALOX5 translocation

Compound: C[C@H](CCC(=O)O)C[C@H](C)C[C@H](C)C(=O)/C=C(\O)[C@H](C)C[C@H](C)C/C=C/[C@@H](C)[C@@H](O)[C@@H](C)[C@@H](O)C[C@@H]1CC[C@@](C)([C@H]2CC[C@@](C)([C@@H](C)O)O2)O1 [ionomycin]
- GFP-ALOX5 translocation to the nuclear membrane (GFP-ALOX5 [5]): induced localization of GFP-ALOX5 to the nuclear membrane in all BJ-derived cell lines

Compound: Vitamin E [Vit. E]
- rescue of siGPX4-induced cell death (GPX4): rescued

Compound: lysophosphatidyl choline [lyso-PC]
- differential cytotoxicity between BJeH and BJeLR ([1]; lyso-PC alone, 24 hours): did not show differential cytotoxicity
- effect of lyso-PC on erastin-induced cell death (HT-1080 cells [4]): modestly sensitized cells to erastin-induced cell death
